In ChEMBL document CHEMBL4359853, “Antiproliferative activity of (R)-4'-methylklavuzon on hepatocellular carcinoma cells and EpCAM+/CD133+ cancer stem cells via SIRT1 and Exportin-1 (CRM1) inhibition” (Eur J Med Chem, 2019):
Calls of active or inactive are those of the source. The calls are words filed in the database; no cut-off is given here.

Key:
Huh-7 [1] = assay: Upregulation of SIRT1 in human HuH7 cells assessed as fold change at 1 uM measured after 24 hrs by ELISA relative to control; format: functional
Huh-7 [2] = assay: Induction of apoptosis in human HuH7 cells expressing positive EpCAM/CD133 assessed as loss of spheroid morphology at 62.5 uM measured after 48 hrs by inverted light microscopy based matrigel assay; format: functional, cell-based
Huh-7 [3] = assay: Upregulation of p21 expression in human HuH7 cells expressing negative EpCAM/CD133 at 1 to 3 uM measured after 72 hrs by SYBR-green based qPCR analysis; format: functional, cell-based
HepG2 [4] = assay: Induction of 3D spheroid death in human HepG2 cells assessed as upregulation of p53 measured after 24 hrs by DAPI staining based fluorescence microscopy analysis assay; format: functional, cell-based
[5] = molecular target: Exportin-1 (Homo sapiens) (UniProt O14980); assay: Inhibition of CRM1 in human HuH7 cells assessed as accumulation of RIOK2 in nucleus at 1 and 10 uM measured after 24 hrs by DAPI staining based confocal microscopy analysis; format: cell-based
Homo sapiens [6] = species: Homo sapiens; assay: Inhibition of Sirtuin/HDAC in human HuH7 cells expressing positive EpCAM/CD133 assessed as decrease in cell viability measured after 24 hrs; format: cell-based
Huh-7 [7] = assay: Cell cycle arrest in human HuH7 positive EpCAM/CD133 cells assessed as increase in accumulation at G1 phase at 1 to 1.25 uM measured after 48 hrs by propidium iodide staining based flow cytometry analysis; format: functional
Huh-7 [8] = assay: Induction of apoptosis in human HuH7 cells assessed as loss of spheroid morphology at 62.5 uM measured after 48 hrs by inverted light microscopy based matrigel assay; format: functional, cell-based
[9] = molecular target: Exportin-1 (Homo sapiens) (UniProt O14980); assay: Inhibition of CRM1 in human HepG2 cells assessed as accumulation of RIOK2 in nucleus at 0.1 to 10 uM measured after 6 hrs by DAPI staining based confocal microscopy analysis; format: cell-based
Huh-7 [10] = assay: Induction of apoptosis in human HuH7 negative EpCAM/CD133 cells assessed as change in cell morphology at 0.1 to 10 uM measured after 48 hrs by 2D microscopic analysis; format: functional, cell-based
Huh-7 [11] = assay: Induction of apoptosis in human HuH7 positive EpCAM/CD133 cells measured after 48 hrs by Annexin V-FITC/propidium iodide staining based flow cytometry analysis; format: functional, cell-based
[12] = molecular target: Exportin-1 (Homo sapiens) (UniProt O14980); assay: Inhibition of CRM1 in human HepG2 cells assessed as accumulation of RIOK2 in nucleus at 1 and 10 uM measured after 24 hrs by DAPI staining based confocal microscopy analysis; format: cell-based
Huh-7 [13] = assay: Upregulation of SIRT1 in human HuH7 cells assessed as fold change at 5 uM measured after 24 hrs by ELISA relative to control; format: functional
Homo sapiens [14] = species: Homo sapiens; assay: Inhibition of class 1/2 HDAC in human HuH7 EpCAM/CD133 positive cells nuclear extract at 0.1 to 81 uM after 24 hrs by fluorescence based assay
Homo sapiens [15] = species: Homo sapiens; assay: Inhibition of Sirtuin/HDAC in human HuH7 cells expressing positive EpCAM/CD133 assessed as decrease in enzymatic activity at 0.10 to 5 uM measured after 24 hrs relative to control; format: cell-based
[16] = molecular target: Histone-lysine N-methyltransferase EZH2 (Homo sapiens) (UniProt Q15910); assay: Activation of EZH2 in human HuH7 cells expressing positive EpCAM/CD133 assessed as upregulation of H3K27me3 expression measured after 4 hrs by Western blot analysis; format: cell-based
HepG2 [17] = assay: Induction of apoptosis in human 3D HepG2 spheroids at 10 uM measured after 24 hrs by propidium iodide staining based immunofluorescence microscopy analysis; format: functional, cell-based
HepG2 [18] = assay: Cytotoxicity against human HepG2 cells assessed as reduction in cell viability measured after 48 hrs by MTT assay; format: functional, cell-based; conditions: HepG2, 48 h
[19] = molecular target: T1, NAD-dependent protein deacetylase sirtuin-1 (Homo sapiens) (UniProt Q96EB6); assay: Inhibition of human recombinant SIRT1 using FLUOR DE LYS SIRT1, deacetylase as substrate preincubated for 2 mins followed by substrate addition measured after 1 hr in presence of NAD+ by fluorescence assay
T1 sequence (whole entry): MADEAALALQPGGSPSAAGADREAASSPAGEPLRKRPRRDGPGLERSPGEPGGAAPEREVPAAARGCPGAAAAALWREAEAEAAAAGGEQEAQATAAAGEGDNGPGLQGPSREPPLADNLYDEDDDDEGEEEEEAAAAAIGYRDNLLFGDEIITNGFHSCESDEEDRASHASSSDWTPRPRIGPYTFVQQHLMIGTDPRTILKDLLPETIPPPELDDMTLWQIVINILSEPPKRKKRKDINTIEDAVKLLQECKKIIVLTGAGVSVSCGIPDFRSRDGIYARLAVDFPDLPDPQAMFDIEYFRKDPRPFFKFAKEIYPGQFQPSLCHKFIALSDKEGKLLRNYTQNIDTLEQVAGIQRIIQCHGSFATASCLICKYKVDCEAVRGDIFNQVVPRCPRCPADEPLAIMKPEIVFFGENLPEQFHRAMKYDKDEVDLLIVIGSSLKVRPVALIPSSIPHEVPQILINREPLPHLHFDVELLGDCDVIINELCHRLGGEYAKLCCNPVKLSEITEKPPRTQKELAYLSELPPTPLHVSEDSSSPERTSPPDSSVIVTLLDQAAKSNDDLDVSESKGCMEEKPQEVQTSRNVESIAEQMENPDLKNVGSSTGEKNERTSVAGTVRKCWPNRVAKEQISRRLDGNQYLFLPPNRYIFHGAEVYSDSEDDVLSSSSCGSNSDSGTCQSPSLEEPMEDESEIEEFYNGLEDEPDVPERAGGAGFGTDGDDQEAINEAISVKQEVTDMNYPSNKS

Huh-7 [20] = assay: Cytotoxicity against human HuH7 cells expressing positive EpCAM/CD133 assessed as reduction in cell viability measured after 24 hrs by MTT assay; format: functional, cell-based; conditions: Huh-7, 24 h
Huh-7 [21] = assay: Cytotoxicity against human HuH7 cells expressing positive EpCAM/CD133 assessed as reduction in cell viability measured after 48 hrs by MTT assay; format: functional, cell-based; conditions: Huh-7, 48 h
Huh-7 [22] = assay: Cytotoxicity against human HuH7 cells assessed as reduction in cell viability measured after 48 to 72 hrs by MTT assay; format: functional, cell-based
Huh-7 [23] = assay: Cytotoxicity against human HuH7 cells expressing positive EpCAM/CD133 assessed as reduction in cell viability measured after 72 hrs by MTT assay; format: functional, cell-based; conditions: Huh-7, 72 h
Huh-7 [24] = assay: Upregulation of SIRT1 in human HuH7 cells measured after 24 hrs by ELISA; format: functional, cell-based
Huh-7 [25] = assay: Cell cycle arrest in human HuH7 cells assessed as increase in cell accumulation at G2 phase at 10 uM measured after 48 hrs by propidium iodide staining based flow cytometry analysis; format: functional
[26] = molecular target: Exportin-1 (Homo sapiens) (UniProt O14980); assay: Inhibition of CRM1 in human HuH7 cells assessed as upregulation of p53 by measuring accumulation in nucleus at 0.1 to 10 uM measured after 24 to 48 hrs by DAPI staining based immunofluorescence microscopy analysis; format: cell-based
Huh-7 [27] = assay: Cytotoxicity against human HuH7 cells negative EpCAM/CD133 assessed as reduction in cell viability measured after 24 hrs by MTT assay; format: functional, cell-based; conditions: Huh-7, 24 h

Exportin-1 (Homo sapiens), sequence (O14980 whole entry): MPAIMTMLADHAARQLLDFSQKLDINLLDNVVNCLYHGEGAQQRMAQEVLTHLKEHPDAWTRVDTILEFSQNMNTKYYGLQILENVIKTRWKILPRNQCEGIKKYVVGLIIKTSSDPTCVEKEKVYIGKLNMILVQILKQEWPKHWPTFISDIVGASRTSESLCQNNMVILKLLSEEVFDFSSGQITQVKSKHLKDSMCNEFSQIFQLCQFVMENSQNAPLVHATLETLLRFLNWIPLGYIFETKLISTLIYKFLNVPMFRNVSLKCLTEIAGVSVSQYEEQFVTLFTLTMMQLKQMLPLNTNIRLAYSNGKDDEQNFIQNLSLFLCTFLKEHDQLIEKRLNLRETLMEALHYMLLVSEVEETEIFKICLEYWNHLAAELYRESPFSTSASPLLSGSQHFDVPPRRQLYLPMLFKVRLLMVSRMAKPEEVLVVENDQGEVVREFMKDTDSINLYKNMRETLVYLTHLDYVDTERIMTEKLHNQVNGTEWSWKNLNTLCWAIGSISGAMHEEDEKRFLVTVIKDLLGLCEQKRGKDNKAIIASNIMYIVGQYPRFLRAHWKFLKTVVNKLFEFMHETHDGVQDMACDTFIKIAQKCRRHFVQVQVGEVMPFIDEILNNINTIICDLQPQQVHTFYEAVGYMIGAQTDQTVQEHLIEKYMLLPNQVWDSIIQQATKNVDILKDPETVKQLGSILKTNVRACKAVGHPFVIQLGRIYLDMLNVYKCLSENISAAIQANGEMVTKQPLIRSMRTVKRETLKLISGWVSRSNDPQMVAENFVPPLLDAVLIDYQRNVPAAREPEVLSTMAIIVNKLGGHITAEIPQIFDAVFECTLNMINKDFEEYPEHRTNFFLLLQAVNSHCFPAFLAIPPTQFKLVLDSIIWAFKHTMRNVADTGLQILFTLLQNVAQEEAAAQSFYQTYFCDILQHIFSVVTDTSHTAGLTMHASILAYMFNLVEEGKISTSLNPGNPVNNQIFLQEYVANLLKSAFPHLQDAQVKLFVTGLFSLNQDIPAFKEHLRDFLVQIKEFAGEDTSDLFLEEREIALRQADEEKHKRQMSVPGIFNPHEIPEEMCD
Histone-lysine N-methyltransferase EZH2 (Homo sapiens), sequence (Q15910 whole entry, looked up): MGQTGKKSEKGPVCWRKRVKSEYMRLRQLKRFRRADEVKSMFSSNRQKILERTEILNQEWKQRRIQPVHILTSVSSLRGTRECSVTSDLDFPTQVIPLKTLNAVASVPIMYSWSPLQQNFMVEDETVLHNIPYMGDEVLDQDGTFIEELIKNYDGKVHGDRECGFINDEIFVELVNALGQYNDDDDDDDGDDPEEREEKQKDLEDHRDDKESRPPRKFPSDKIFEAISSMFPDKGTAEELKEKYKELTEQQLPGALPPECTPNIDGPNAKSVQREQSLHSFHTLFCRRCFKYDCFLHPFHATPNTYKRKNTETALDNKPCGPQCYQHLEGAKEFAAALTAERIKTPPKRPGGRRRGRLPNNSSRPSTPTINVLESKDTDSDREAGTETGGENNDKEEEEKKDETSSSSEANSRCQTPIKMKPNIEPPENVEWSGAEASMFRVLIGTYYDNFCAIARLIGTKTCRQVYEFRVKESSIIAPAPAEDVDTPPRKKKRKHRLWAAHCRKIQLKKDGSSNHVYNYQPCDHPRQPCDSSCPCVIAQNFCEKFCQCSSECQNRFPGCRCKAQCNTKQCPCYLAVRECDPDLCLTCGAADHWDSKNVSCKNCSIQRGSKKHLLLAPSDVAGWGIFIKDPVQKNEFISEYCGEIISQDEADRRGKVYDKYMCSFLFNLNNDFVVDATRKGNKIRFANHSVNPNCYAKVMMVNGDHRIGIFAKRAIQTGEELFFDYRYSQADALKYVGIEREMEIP

With `Cc1ccc([C@H]2CC=CC(=O)O2)c2ccccc12` the “fold change (FC)” value (Huh-7 [1]) was 3.3, the Activity (Huh-7 [2]) was “Active” and the Activity (Huh-7 [3]) was “Active”. For the same compound, the Activity (HepG2 [4]) was “Dose-dependent effect”, the inhibition [5] was “Active” and the inhibition (Homo sapiens [6]) was “Active”. The Activity (Huh-7 [7]) was “Active”, the Activity (Huh-7 [8]) was “Active” and the inhibition [9] was “Active”. For the same compound, the Activity (Huh-7 [10]) was “Active”, the Activity (Huh-7 [11]) was “Dose-dependent effect” and the inhibition [12] was “Active”. For the same compound, the “fold change (FC)” value (Huh-7 [13]) was 2, the inhibition (Homo sapiens [14]) was “inactive” and the inhibition (Homo sapiens [15]) was 32 to 39%. The Activity [16] was “Active”, the Activity (HepG2 [17]) was “Active” and the IC50 (HepG2 [18]) was 250 nM. The inhibition [19] was “Dose-dependent effect”, the IC50 (Huh-7 [20]) was 10 µM and the IC50 (Huh-7 [21]) was 2500 nM. For the same compound, the IC50 (Huh-7 [22]) was 1250 nM, the IC50 (Huh-7 [23]) was 1250 nM and the Activity (Huh-7 [24]) was “Dose-dependent effect”. The Activity (Huh-7 [25]) was “Active”, the inhibition [26] was “Active” and the IC50 (Huh-7 [27]) was 10 µM.
